# Results reported in patent US12479792B2, “Compositions of chelating molecules” (The Regents of the University of California, priority 2016, dated 2025).
# How the values were obtained:
# [1] = Abergel et al., Inorganic chemistry 2009; given for comparison; cited from earlier work
# [2] = Deblonde et al. 2013; Sturzbecher-Hoehne et al. 2015; cited from earlier work
# [3] = same conditions; Abergel et al., Inorganic chemistry 2009; cited from earlier work
# [4] = Th(IV) complex formation constants by spectrophotometric competition titration in the presence of DTPA; assay type: binding
# Procedure: (§1) Metal, Chelator Solutions. The trivalent lanthanide Ln(III) working stock solutions were prepared in standardized 0.1 M HCl. A Zr(IV) stock solution was prepared by dissolving ZrCl4 in 3.0 M H2SO4, to prevent hydrolysis. The metal salt ZrCl4 was handled and stored in a glovebox kept under inert atmosphere. The Zr(IV) stock solution was standardized against EDTA, with xylene orange as the indicator (Welcher, F. J. The analytical uses of ethylenediamine tetraacetic acid; 1958). A Th(IV) stock solution was prepared in 0.1 M H2SO4. Stock solutions (4 mM) of Ent, and 3,4,3-LI(CAM) were prepared by direct dissolution of a weighed portion of chelator in DMSO and aliquots were removed prior to each set of experiments.
# (§2) Solution Thermodynamics. All titrant solutions were degassed by boiling for 1 h while being purged under Ar. Carbonate-free 0.1 M KOH was prepared from concentrate (J.T Baker Dilut-It) and was standardized by titrating against 0.1 M potassium hydrogen phthalate (99.95%, Sigma Aldrich). Solutions of 0.1 M HCl were similarly prepared and were standardized by titrating against TRIS (99.9%, J.T. Baker). The glass electrode (Metrohm-Micro Combi-response to [H+]) used for the pH measurements was calibrated at 25.0° C. and at an ionic strength of 0.1 M (KCl) before each potentiometric or spectrophotometric titration. The calibration data were analyzed using the program GLEE (Gans & O'Sullivan, Talanta, 2000, 51 (1): 33-37) to refine for the E° and slope. All thermodynamic measurements were conducted at 25.0° C., in 0.1 M KCl supporting electrolyte under positive Ar gas pressure. The automated titration system was controlled by an 867 pH Module (Metrohm). […]
# (§3) Incremental Spectrophotometric Titrations. […] For the 3,4,3-LI(CAM) protonation (and Eu(III)-3,4,3-LI(CAM) complexes), titrations were performed with an initial concentration of 50 μM of 3,4,3-LI(CAM) (and 50 μM of Eu(III)) resulting in absorbance values included between 0 and 1.0 throughout the titration. […]
# [5] = Zr(IV) complex formation constants by spectrophotometric competition titration in the presence of DTPA; assay type: binding
# Procedure: as §1, §2, §3
# [6] = Eu(III) complex formation constants by incremental spectrophotometric titration; assay type: binding
# Procedure: as §1, §2, §3
Compound,overall acidity ΣpKa5-8 [1],pH at which 4+ metal complexes are formed [2],pH at which Eu(III) species already appear [3],"log β110, stability constant of Th(IV) complex ([4]; I=0.1 M (KCl), T=25° C.)","predominant Th(IV) species at physiological pH ([4]; pH 7.4, speciation diagram, 1 equivalent of Th(IV))","pH at which Th(IV) complexes start forming ([4]; speciation diagram, 1 equivalent of Th(IV), [Th]=[CAM]=10 μM, T=25° C., I=0.1 M, Hyss)","log β110, stability constant of Zr(IV) complex ([5]; I=0.1 M (KCl), T=25° C.)","predominant Zr(IV) species at physiological pH ([5]; pH 7.4, speciation diagram, 1 equivalent of Zr(IV))","pH at which Zr(IV) complexes start forming ([5]; speciation diagram, 1 equivalent of Zr(IV), [Zr]=[CAM]=10 μM, T=25° C., I=0.1 M, Hyss)","log β110, stability constant of Eu(III) complex ([6]; I=0.1 M (KCl), T=25° C.)","only Eu(III) species present at pH 7.4 ([6]; pH 7.4, speciation diagram, 1 equivalent of Eu(III))","pH at which Eu(III) complexation starts ([6]; speciation diagram, 1 equivalent of Eu(III), [Eu]=[CAM]=10 μM, T=25° C., I=0.1 M, Hyss)"
"O=C(NCCCN(CCCCN(CCCNC(=O)c1cccc(=O)n1O)C(=O)c1cccc(=O)n1O)C(=O)c1cccc(=O)n1O)c1cccc(=O)n1O [3,4,3-LI(1,2-HOPO)]",21.2,< 0,1,,,,,,,,,
"O=C(NCCCN(CCCCN(CCCNC(=O)c1cccc(O)c1O)C(=O)c1cccc(O)c1O)C(=O)c1cccc(O)c1O)c1cccc(O)c1O [3,4,3-LI(CAM)]",,,,47.7,[MIVLH]^3− and [MIVL]^4−,~3,57.3,[MIVLH]^3− and [MIVL]^4−,~3,29.7,[Eu^IIILH]^4−,5
